Earlier results, collected in article PMC4084622 (Journal of Medicinal Chemistry, 2014).

Test system: M. tuberculosis
Conditions: M. tuberculosis H37Rv, Erdman, and drug-resistant strains; cited from earlier work

For `CC(C)=CCC/C(C)=C/CNCCNC1C2CC3CC(C2)CC1C3` (stereo not shown) [compound 1, SQ109], the “minimum inhibitory concentration (MIC)” value is given as 0.7 to 1.56 µM.
